Measurements taken from US20250205200A1, “5-METHOXY-N,N-[…][…] THE TREATMENT OF […]” (GH RESEARCH IRELAND LIMITED, priority 2022, published 2025).

System: patients with postpartum depression (PPD)
Test: Clinical trial of inhaled 5-MeO-DMT (individualized dosing regimen) in postpartum depression; one patient, 6 mg then 12 mg
Details: n=1; for BPRS Blunted affect improvement / BPRS Blunted affect score / BPRS Conceptual disorganization improvement / BPRS Conceptual disorganization score / BPRS Disorientation improvement / BPRS Disorientation score / BPRS Grandiosity improvement / BPRS Grandiosity score / BPRS Hallucinatory behaviour improvement / BPRS Hallucinatory behaviour score / BPRS Hostility improvement / BPRS Hostility score / BPRS Mannerisms and Posturing improvement / BPRS Mannerisms and Posturing score / BPRS Motor retardation improvement / BPRS Motor retardation score / BPRS Suspiciousness improvement / BPRS Suspiciousness score / BPRS Uncooperativeness improvement / BPRS Uncooperativeness score / BPRS Unusual Thought Content improvement / BPRS Unusual Thought Content score: baseline 1; for BPRS Excitement improvement / BPRS Excitement score: baseline 2; for BPRS Anxiety improvement / BPRS Anxiety score: baseline 7
Protocol: The single-arm, open-label clinical trial will involve 15 adult female patients with clinically diagnosed postpartum depression (PPD).
The second dose (12 mg) will only be administered if: • a. […] The 6 mg dose was safe and well-tolerated according to the investigator, • c. Any psychoactive effects (PsE) of the prior dose have subsided, and • d. Pre-dose vital parameters and forced expiratory volume in one second (FEV1) are in normal range, or if outside of the normal range, are not clinically significant according to the investigator. • 3. Similarly, a third dose (18 mg) will only be administered if: • a. […] The 12 mg dose was safe and well-tolerated according to the investigator, and • c. Any PsE of the prior dose have subsided, and • d. Pre-dose vital parameters and forced expiratory volume in one second (FEV1) are in normal range, or if outside of the normal range, are not clinically significant according to the investigator.
The patients will be assessed for a peak psychedelic experience (based on a patient-scored visual analogue scale, the PE scale), sedation, and other endpoints after dosing.
Follow-up visits are planned for Day 1, and Day 7 after the dosing day.
The following criteria must be met by all patients considered for clinical trial participation: • 1. Is female and in the age range between 18 and 45 years (inclusive) at screening. • 2. Has a body mass index (BMI) in the range of 18.5 and 35 kg/m^2 (inclusive) at screening. • 3. Meets the trial criteria for PPD as assessed by a trial psychiatrist or registered psychologist: • a. Diagnosis of Major Depressive Disorder without psychotic features, confirmed by the Mini-International Neuropsychiatric Interview (MINI), with peri-partum onset that began no earlier than gestation and no later than the first 4 weeks postpartum. • b. Has a Montgomery-Åsberg Depression Rating Scale (MADRS) total score of equal to or greater than 28 at screening and pre-dose on Day 0. • 6. […] Patients must have a negative pregnancy test at screening and on the pre-test day (Day −1). • 5. Is willing to delay start of other antidepressant or anxiety medication until after the end of the trial at Day 7 and agrees to keep any psychotherapy unchanged during the trial.
A potential patient who meets any of the following key exclusion criteria will be excluded from participation in this trial: • 1. Has, based on history, psychiatric assessment, and evaluation of the MINI, a current or prior diagnosis of bipolar disorder, a manic or hypomanic episode, a psychotic disorder, Major Depressive Disorder (MDD) or other mood disorder with psychotic features, obsessive compulsive disorder, post-traumatic stress disorder (PTSD), autism spectrum disorder, borderline personality disorder, schizophrenia, delusional disorder, paranoid personality disorder, schizoaffective disorder, clinically significant intellectual disability, or any other psychiatric comorbidity that renders the patient unsuitable for the trial according to the investigator's judgment. • 2. Has one or more first or second degree relatives with a current or previously diagnosed bipolar disorder, psychotic disorder or other mood disorder (including MDD) with psychotic features. • 3. Is in the judgement of a trial psychiatrist or registered psychologist, at significant risk for suicide based on history, psychiatric assessment, and evaluation of suicidal ideation and suicidal behaviour based on the Columbia-Suicide Severity Rating Scale (C-SSRS). • 4. Has taken anti-depressive medication within 14 days or 5 half-lives (whichever is longer) prior to dosing (exception: within the last 5 weeks in the case of fluoxetine). • 5.

## COc1ccc2[nH]cc(CCN(C)C)c2c1 [5-MeO-DMT]
Day 7, baseline 0
  MADRS Suicidal Thoughts improvement: 0
  MADRS Suicidal Thoughts score: 0
Day 7
  BPRS Blunted affect improvement: 0
  BPRS Blunted affect score: 1
  BPRS Conceptual disorganization improvement: 0
  BPRS Conceptual disorganization score: 1
  BPRS Disorientation improvement: 0
  BPRS Disorientation score: 1
  BPRS Grandiosity improvement: 0
  BPRS Grandiosity score: 1
  BPRS Hallucinatory behaviour improvement: 0
  BPRS Hallucinatory behaviour score: 1
  BPRS Hostility improvement: 0
  BPRS Hostility score: 1
  BPRS Mannerisms and Posturing improvement: 0
  BPRS Mannerisms and Posturing score: 1
  BPRS Motor retardation improvement: 0
  BPRS Motor retardation score: 1
  BPRS Suspiciousness improvement: 0
  BPRS Suspiciousness score: 1
  BPRS Uncooperativeness improvement: 0
  BPRS Uncooperativeness score: 1
  BPRS Unusual Thought Content improvement: 0
  BPRS Unusual Thought Content score: 1
  BPRS Excitement improvement: 1
  BPRS Excitement score: 1
  BPRS Anxiety improvement: 6
  BPRS Anxiety score: 1
Day 7, baseline 3
  MADRS Inability to Feel improvement: 3
  MADRS Inability to Feel score: 0
  MADRS Lassitude improvement: 3
  MADRS Lassitude score: 0
Day 7, baseline 4
  MADRS Pessimistic Thoughts improvement: 4
  MADRS Pessimistic Thoughts score: 0
  MADRS Reported sadness improvement: 4
  MADRS Reported sadness score: 0
Day 7, baseline 5
  BPRS Emotional withdrawal improvement: 4
  BPRS Emotional withdrawal score: 1
  MADRS Apparent sadness improvement: 5
  MADRS Apparent sadness score: 0
  MADRS Inner Tension improvement: 4
  MADRS Inner Tension score: 1
  MADRS Reduced Sleep improvement: 5
  MADRS Reduced Sleep score: 0
Day 7, baseline 6
  BPRS Depressive Mood improvement: 5
  BPRS Depressive Mood score: 1
  BPRS Guilt feelings improvement: 5
  BPRS Guilt feelings score: 1
  BPRS Somatic Concern improvement: 5
  BPRS Somatic Concern score: 1
  BPRS Tension improvement: 5
  BPRS Tension score: 1
Day 7 vs Day 0
  BIMF functional domain Adjustment % improvement: 20.00%
  BIMF functional domain Adjustment Δ: 1
  BIMF functional domain Infant Care % improvement: 0.00%
  BIMF functional domain Infant Care Δ: 0
  BIMF functional domain Management % improvement: 18%
  BIMF functional domain Management Δ: 5
  BIMF functional domain Mother-Child Interaction Δ: 2
  BIMF functional domain Psychological Well-being Δ: 9
  BIMF functional domain Self-Care % improvement: 44%
  BIMF functional domain Self-Care Δ: 4
  BIMF functional domain Social Support Δ: 1
  BIMF item 10 (I trust my own feelings (instincts) when taking care of my baby) Δ: 1
  BIMF item 11 (I take a little time each week to do something for myself) Δ: 1
  BIMF item 16 (I worry about how other people judge me (as a mother)) Δ: 2
Day 7 vs Day 0 (92 to 105)
  BIMF total score percentage improvement: 14%
Discharge
  BPRS Blunted affect improvement: 0
  BPRS Blunted affect score: 1
  BPRS Conceptual disorganization improvement: 0
  BPRS Conceptual disorganization score: 1
  BPRS Disorientation improvement: 0
  BPRS Disorientation score: 1
  BPRS Grandiosity improvement: 0
  BPRS Grandiosity score: 1
  BPRS Hallucinatory behaviour improvement: 0
  BPRS Hallucinatory behaviour score: 1
  BPRS Hostility improvement: 0
  BPRS Hostility score: 1
  BPRS Mannerisms and Posturing improvement: 0
  BPRS Mannerisms and Posturing score: 1
  BPRS Motor retardation improvement: 0
  BPRS Motor retardation score: 1
  BPRS Suspiciousness improvement: 0
  BPRS Suspiciousness score: 1
  BPRS Uncooperativeness improvement: 0
  BPRS Uncooperativeness score: 1
  BPRS Unusual Thought Content improvement: 0
  BPRS Unusual Thought Content score: 1
  BPRS Excitement improvement: 1
  BPRS Excitement score: 1
  BPRS Anxiety improvement: 6
  BPRS Anxiety score: 1
Discharge, baseline 5
  BPRS Emotional withdrawal improvement: 4
  BPRS Emotional withdrawal score: 1
Discharge, baseline 6
  BPRS Depressive Mood improvement: 5
  BPRS Depressive Mood score: 1
  BPRS Guilt feelings improvement: 5
  BPRS Guilt feelings score: 1
  BPRS Somatic Concern improvement: 5
  BPRS Somatic Concern score: 1
  BPRS Tension score: 1
Shortly after administration
  Changes in vital parameters: temporary, clinically non-relevant increase in heart rate and blood pressure
